Laboratory results from patent publication US20230321089A1, “COMBINATION OF CABOTEGRAVIR AND LEVONORGESTREL” (ViiV Healthcare Company, priority 2020, published 2023).

Legend:
[1] = design: species or system male Sprague Dawley rats; conditions: rat, in vivo
Procedure: To prepare the combination product, LNG and LNG-b suspensions were added to Cabotegravir suspensions at 500 mg/mL to achieve a final Cabotegravir concentration of approximately 200 mg/mL and a final LNG and LNGb concentration of […], using a solution of 2.0% Mannitol in water to adjust the final concentrations to target. Concentrations of P338 and PEG3350 were at 4.5%. The resulting suspensions were flushed with nitrogen, stoppered (FM457 stopper), and sealed. The suspensions were terminally sterilized by gamma irradiation at a minimum dose of 25 kGy.
The pharmacokinetics of co-suspensions of Cabotegravir and LNG/LNG-b, prepared as described above, were evaluated in male Sprague Dawley rats. The formulations that were tested included: • i. 200 mg/mL Cabotegravir and 40 mg/mL LNG—0.2 microns • ii. 200 mg/mL Cabotegravir 40 mg/mL LNG—1 micron • iii. 200 mg/mL Cabotegravir and 40 mg/mL LNGb—0.2 microns • iv. 200 mg/mL Cabotegravir 40 mg/mL LNGb—1 micron
Rats were administered co-suspensions either intramuscularly or subcutaneously at target doses of 10 mg/kg Cabotegravir and […] LNG or LNGb. […] FIG. 2 is a comparison of Levonorgestrel blood concentration pharmacokinetic profiles after intramuscular vs. subcutaneous administration. The average particle size of LNG for these formulations was 0.2 microns in diameter. […] Furthermore, FIG. 3 is a comparison of LNG and LNG-b co-formulated with Cab.

HIV-1 strains = conditions: broad range of HIV-1 strains; cited from earlier work

In the case of `C#C[C@]1(OC(=O)CCC)CC[C@H]2[C@@H]3CCC4=CC(=O)CC[C@@H]4[C@H]3CC[C@@]21CC` [LNGb, Levonorgestrel-butanoate], the “Cmax compared with LNG” value ([1]; sc) was “lower” and the “apparent half-life compared with LNG” value ([1]; sc) was “slightly longer”.
For `C#C[C@]1(O)CC[C@H]2[C@@H]3CCC4=CC(=O)CC[C@@H]4[C@H]3CC[C@@]21CC` [LNG, Levonorgestrel], the “Levonorgestrel blood concentration pharmacokinetic profile: intramuscular vs. subcutaneous administration” value [1] was “does not appear to be a significant impact”.
In the case of `C[C@H]1CO[C@@H]2Cn3cc(C(=O)NCc4ccc(F)cc4F)c(=O)c(O)c3C(=O)N12` [Cabotegravir, N-((2,4-Difluorophenyl)methyl)-6-hydroxy-3-methyl-5,7-dioxo-2,3,5,7,11,11a hexahydro(1,3)oxazolo(3,2-a)pyrido(1,2-d)pyrazine-8-carboxamide], the potency (HIV-1 strains) is listed as “subnanomolar”.
